Laboratory results from patent US8324390B2, “Tetrazole-substituted anthranilamides as pesticides” (Bayer CropScience AG, priority 2008, dated 2012).
Where two headings read alike, the source gives them in different places.

Tests used:
[1] = test system: caterpillars of the armyworm (Spodoptera frugiperda); assay: Spodoptera frugiperda test (SPODFR spray treatment); type: in vivo; details: Spodoptera frugiperda, foliar, read-out: effect in % (caterpillars killed)
Text: (§1) Solvent: 78.0 parts by weight of acetone

[2] = test system: larvae of the mustard beetle (Phaedon cochleariae); assay: Phaedon test (PHAECO spray treatment); details: Phaedon cochleariae, in Brassica rapa, foliar, read-out: effect in % (beetle larvae killed)
[3] = test system: green peach aphid (Myzus persicae); assay: Myzus test (MYZUPE spray treatment); type: in vivo; details: Myzus persicae, foliar, read-out: effect in % (aphids killed)
Text: Solvent: 78 parts by weight of acetone
as §1

[4] = log P determination by HPLC (EEC Directive 79/831 Annex V.A8); type: physicochemical
Description: The measurements were carried out using an Agilent 1100 LC system with a 50*4.6 Zorbax Eclipse C18 1.8 μm column (oven temperature 55° C., flow rate 2.0 ml/min).
The following mobile phases were used:
Mobile phase A: acetonitrile+1000 μl of formic acid/l
Mobile phase B: Millipore water+900 μl of formic acid/l

[5] = application rate 100 g/ha, maize leaf discs
[6] = application rate 100 g/ha, Chinese cabbage leaf discs
[7] = reversed-phase HPLC, Zorbax Eclipse C18 column, determined by HPLC according to EEC Directive 79/831 Annex V.A8, read-out: log P

| SMILES | pest or weed control at 100 g/ha [1, 5] [%] | pest or weed control at 100 g/ha [2] [%] | pest or weed control at 100 g/ha [3, 6] [%] | chromatographic logP [4, 7] | pest or weed control at 100 g/ha ([1]; in Zea mays) [%] | pest or weed control at 100 g/ha ([3]; in Brassica rapa) [%] | chromatographic logP ([4]; log P) | pest or weed control at 20 g/ha ([3]; in Brassica rapa) [%] |
| --- | --- | --- | --- | --- | --- | --- | --- | --- |
| CCNC(=O)c1cc(Br)cc(C)c1NC(=O)c1cc(Cn2nnc(C(F)(F)F)n2)nn1-c1ncccc1Br [Example 411] | ≥ 80 | ≥ 80 | ≥ 80 | 3.36 | – | – | – | – |
| Cc1cc(I)cc(C(=O)NCC#N)c1NC(=O)c1cc(Cn2nnc(C(F)(F)F)n2)nn1-c1ncccc1Br [Example 412] | ≥ 80 | ≥ 80 | ≥ 80 | 3.16 | – | – | – | – |
| Cc1cc(C#N)cc(C(=O)NC(C)C)c1NC(=O)c1cc(Cn2nnc(C(F)(F)C(F)(F)F)n2)nn1-c1ncccc1Br [Example 423] | ≥ 80 | ≥ 80 | ≥ 80 | 3.46 | – | – | – | – |
| Cc1cc(C#N)cc(C(N)=O)c1NC(=O)c1cc(Cn2nnc(C(F)(F)C(F)(F)F)n2)nn1-c1ncccc1Br [Example 424] | ≥ 80 | ≥ 80 | ≥ 80 | 2.8 | – | – | – | – |
| Cc1cc(C#N)cc(C(=O)NC(C)(C)C)c1NC(=O)c1cc(Cn2nnc(C(F)(F)C(F)(F)F)n2)nn1-c1ncccc1Br [Example 425] | ≥ 80 | ≥ 80 | ≥ 80 | 3.78 | – | – | – | – |
| CCNC(=O)c1cc(C#N)cc(C)c1NC(=O)c1cc(Cn2nnc(C(F)(F)C(F)(F)F)n2)nn1-c1ncccc1Br [Example 426] | ≥ 80 | ≥ 80 | ≥ 80 | 3.23 | – | – | – | – |
| Cc1cc(Cl)cc(C(=O)NC(C)C)c1NC(=O)c1cc(Cn2nnc(C(F)(F)F)n2)nn1-c1ccccc1Cl [Example 427] | ≥ 80 | ≥ 80 | ≥ 80 | 3.93 | – | – | – | – |
| Cc1cc(C#N)cc(C(=O)NC(C)(C)C)c1NC(=O)c1cc(Cn2nnc(C(F)(F)F)n2)nn1-c1ccccc1 [Example 428] | ≥ 80 | ≥ 80 | ≥ 80 | 3.72 | – | – | – | – |
| CNC(=O)c1cc(C#N)cc(C)c1NC(=O)c1cc(Cn2nnc(C(F)(F)C(F)(F)F)n2)nn1-c1ccccc1Cl [Example 430] | ≥ 80 | ≥ 80 | ≥ 80 | 3.43 | – | – | – | – |
| C#CC(C)NC(=O)c1cc(C#N)cc(C)c1NC(=O)c1cc(Cn2nnc(C(F)(F)F)n2)nn1-c1ncccc1Cl (stereo not shown) [Example 432] | – | ≥ 80 | – | – | ≥ 80 | ≥ 80 | 2.97 | – |
| Cc1cc(C#N)cc(C(=O)NC(C)C(F)(F)F)c1NC(=O)c1cc(Cn2nnc(C(F)(F)F)n2)nn1-c1ncccc1Cl (stereo not shown) [Example 433] | – | ≥ 80 | – | – | ≥ 80 | ≥ 80 | 3.25 | – |
| Cc1cc(C#N)cc(C(=O)NC(C)(C)C)c1NC(=O)c1cc(Cn2nnc(C(F)(F)C(F)(F)F)n2)nn1-c1ccccc1Cl [Example 434] | ≥ 80 | ≥ 80 | ≥ 80 | 4.25 | – | – | – | – |
| COCCNC(=O)c1cc(C#N)cc(C)c1NC(=O)c1cc(Cn2nnc(C(F)(F)F)n2)nn1-c1ccccc1Cl [Example 435] | ≥ 80 | ≥ 80 | ≥ 80 | 3.18 | – | – | – | – |
| Cc1cc(C#N)cc(C(N)=O)c1NC(=O)c1cc(C(C)n2nnc(C(F)(F)F)n2)nn1-c1ncccc1Cl (stereo not shown) [Example 437] | – | ≥ 80 | – | – | ≥ 80 | ≥ 80 | 2.66 | – |
| Cc1cc(C#N)cc(C(=O)NC(C)C)c1NC(=O)c1cc(C(C)n2nnc(C(F)(F)F)n2)nn1-c1ncccc1Cl (stereo not shown) [Example 438] | – | ≥ 80 | – | – | ≥ 80 | ≥ 80 | 3.35 | – |
| Cc1cc(C#N)cc(C(=O)NCC2CC2)c1NC(=O)c1cc(Cn2nnc(C(F)(F)F)n2)nn1-c1ccccc1Cl [Example 440] | ≥ 80 | ≥ 80 | ≥ 80 | 3.61 | – | – | – | – |
| CNC(=O)c1cc(S(C)(=O)=O)cc(C)c1NC(=O)c1cc(Cn2nnc(C(F)(F)F)n2)nn1-c1ccccc1Cl [Example 441] | ≥ 80 | ≥ 80 | ≥ 80 | 2.73 | – | – | – | – |

| SMILES | pest or weed control at 100 g/ha [1, 5] [%] | pest or weed control at 100 g/ha [2] [%] | pest or weed control at 100 g/ha [3, 6] [%] | chromatographic logP [4, 7] | pest or weed control at 100 g/ha ([1]; in Zea mays) [%] | pest or weed control at 100 g/ha ([3]; in Brassica rapa) [%] | chromatographic logP ([4]; log P) | pest or weed control at 20 g/ha ([3]; in Brassica rapa) [%] |
| --- | --- | --- | --- | --- | --- | --- | --- | --- |
| Cc1cc(C#N)cc(C(=O)NC2CC2)c1NC(=O)c1cc(Cn2nnc(C(F)(F)F)n2)nn1-c1ccccc1Cl [Example 442] | ≥ 80 | ≥ 80 | ≥ 80 | 3.29 | – | – | – | – |
| Cc1cc(Cl)cc(C(=O)NC(C)(C)C)c1NC(=O)c1cc(Cn2nnnc2C(F)(F)C(F)(F)F)nn1-c1ncccc1Cl [Example 443] | – | ≥ 80 | – | – | ≥ 80 | ≥ 80 | 3.92 | – |
| CNC(=O)c1cc(C#N)cc(C)c1NC(=O)c1cc(Cn2nnnc2C(F)(F)C(F)(F)F)nn1-c1ncccc1Cl [Example 444] | – | ≥ 80 | – | – | ≥ 80 | ≥ 80 | 2.73 | – |
| Cc1cc(C#N)cc(C(=O)NC2CC2)c1NC(=O)c1cc(Cn2nnnc2C(F)(F)C(F)(F)F)nn1-c1ncccc1Cl [Example 445] | – | ≥ 80 | – | – | ≥ 80 | ≥ 80 | 2.95 | – |
| Cc1cc(C#N)cc(C(=O)NC(C)(C)C)c1NC(=O)c1cc(Cn2nnnc2C(F)(F)C(F)(F)F)nn1-c1ncccc1Cl [Example 446] | – | ≥ 80 | – | – | ≥ 80 | ≥ 80 | 3.47 | – |
| CNC(=O)c1cc(Cl)cc(Cl)c1NC(=O)c1cc(Cn2nnnc2C(F)(F)C(F)(F)F)nn1-c1ncccc1Cl [Example 447] | – | ≥ 80 | – | – | ≥ 80 | ≥ 80 | 3.03 | – |
| CC(NC(=O)c1cc(Cl)cc(Cl)c1NC(=O)c1cc(Cn2nnnc2C(F)(F)C(F)(F)F)nn1-c1ncccc1Cl)C1CC1 (stereo not shown) [Example 448] | – | ≥ 80 | – | – | ≥ 80 | ≥ 80 | 3.81 | – |
| Cc1cc(I)cc(C(=O)NC(C)C)c1NC(=O)c1cc(Cn2nnnc2C(F)(F)F)nn1-c1ncccc1C(F)(F)F [Example 450] | ≥ 80 | ≥ 80 | ≥ 80 | 3.54 | – | – | – | – |
| CNC(=O)c1cc(I)cc(C)c1NC(=O)c1cc(Cn2nnnc2C(F)(F)F)nn1-c1ncccc1C(F)(F)F [Example 452] | ≥ 80 | ≥ 80 | ≥ 80 | 3.07 | – | – | – | – |
| Cc1cc(I)cc(C(N)=O)c1NC(=O)c1cc(Cn2nnnc2C(F)(F)F)nn1-c1ncccc1C(F)(F)F [Example 455] | ≥ 80 | ≥ 80 | ≥ 80 | 2.83 | – | – | – | – |
| Cc1cc(Br)cc(C(=O)NC(C)C)c1NC(=O)c1cc(Cn2nnnc2C(F)(F)F)nn1-c1ncccc1C(F)(F)F [Example 459] | ≥ 80 | ≥ 80 | ≥ 80 | 3.29 | – | – | – | – |
| Cc1cc(Cl)cc(C(=O)NC(C)C2CC2)c1NC(=O)c1cc(Cn2nnnc2C(F)F)nn1-c1ncccc1Cl (stereo not shown) [Example 460] | – | ≥ 80 | – | – | ≥ 80 | – | 3.07 | ≥ 80 |
| Cc1cc(Cl)cc(C(=O)NC2CC2)c1NC(=O)c1cc(Cn2nnnc2C(F)F)nn1-c1ncccc1Cl [Example 461] | – | ≥ 80 | – | – | ≥ 80 | – | 2.5 | ≥ 80 |
| Cc1cc(Cl)cc(C(=O)NC(C)C)c1NC(=O)c1cc(Cn2nnnc2C(F)F)nn1-c1ncccc1Cl [Example 462] | – | ≥ 80 | – | – | ≥ 80 | ≥ 80 | 2.75 | – |
| Cc1cc(C#N)cc(C(=O)NC(C)C)c1NC(=O)c1cc(Cn2nnnc2C(F)F)nn1-c1ncccc1Cl [Example 463] | – | ≥ 80 | – | – | ≥ 80 | ≥ 80 | 2.36 | – |
| Cc1cc(C#N)cc(C(=O)NC(C)(C)C)c1NC(=O)c1cc(Cn2nnnc2C(F)F)nn1-c1ncccc1Cl [Example 464] | – | ≥ 80 | – | – | ≥ 80 | ≥ 80 | 2.59 | – |
| CC(NC(=O)c1cc(Cl)cc(Cl)c1NC(=O)c1cc(Cn2nnnc2C(F)F)nn1-c1ncccc1Cl)C1CC1 (stereo not shown) [Example 465] | – | ≥ 80 | – | – | ≥ 80 | ≥ 80 | 3.02 | – |
